According to patent publication US6713051B2, “Antiperspirant or deodorant compositions” (Unilever Home & Personal Care USA division of Conopco, Inc., priority 2001, dated 2004):

Columns and labels:
Format in all cases: cell-based
[1] = tested on: Human foreskin keratinocytes; test: Keratinocyte proliferation analysis (DNA content per well, Pico Green); settings: for DNA: 4 days, control (0 μM) 1.66
Description: (§1) Human foreskin keratinocytes (passage 3) were seeded at 4000 cells/well in 96 well plates in Keratinocyte Growth Medium (abbreviated to KGM) containing 0.03 mM calcium and grown for 3 days at 37° C. The cells were then treated with PPAR ligands in KGM containing 0.03 mM calcium for 4 days prior to harvest. Stock solutions of PPAR ligands were dissolved in dimethylsulphoxide (DMSO) and diluted in KGM before adding to the cells. […] The harvested cells were washed 3× in phosphate buffered saline (PBS) and extracted in 1% Triton X100, 50 mM (tris[hydroxymethyl]aminomethane) (Tris) pH 8.0 plus protease inhibitors pepstatin and leupeptin (100 μl/well). The extract was assayed for DNA content using the Pico Green DNA assay (Molecular Probes, Inc.).
Cultured keratinocytes were treated with cis-9-trans-11 conjugated linoleic acid (CT-CLA) for 4 days. The cells were extracted with Tris-1% Triton X100 and the DNA content per well was determine by the Pico Green assay in accordance with the above described procedure.

human PPARα = biological target: T1, human PPARα (Homo sapiens, UniProt Q07869); test: PPARα reporter gene assay (firefly luciferase, transiently transfected Cos-7 cells); settings: for Result (superior activity class achieved): class reached; for Pass at (lowest tested administration level at which the test material passed): pass = activation greater than oleic acid at 100 μM, commonly >1.57 times vehicle control, 24 h treatment
T1 construct: The coding region of a human PPARα cDNA was inserted downstream of the CMV promoter; expressed in transfected cells; host or cells: Cos-7 cells, transient transfection (pcDNA3.1(−)-PPARα, pRSV-RXRα, 3xPPRE-TK-luc reporter, pRL-TK)
T1 sequence (Q07869 1-468): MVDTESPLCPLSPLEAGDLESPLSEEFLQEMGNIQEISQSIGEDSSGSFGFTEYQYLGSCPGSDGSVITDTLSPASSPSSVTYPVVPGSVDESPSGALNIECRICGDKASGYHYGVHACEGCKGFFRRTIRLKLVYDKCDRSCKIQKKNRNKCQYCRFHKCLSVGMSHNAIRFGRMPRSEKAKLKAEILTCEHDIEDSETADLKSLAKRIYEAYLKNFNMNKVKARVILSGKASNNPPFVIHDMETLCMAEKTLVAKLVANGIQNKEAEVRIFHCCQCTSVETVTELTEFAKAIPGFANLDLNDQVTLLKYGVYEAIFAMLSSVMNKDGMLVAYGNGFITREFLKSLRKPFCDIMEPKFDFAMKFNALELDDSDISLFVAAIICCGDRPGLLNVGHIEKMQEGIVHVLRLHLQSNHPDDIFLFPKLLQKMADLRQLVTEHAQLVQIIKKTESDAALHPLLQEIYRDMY
T1 sequence (P19793 1-462 partner): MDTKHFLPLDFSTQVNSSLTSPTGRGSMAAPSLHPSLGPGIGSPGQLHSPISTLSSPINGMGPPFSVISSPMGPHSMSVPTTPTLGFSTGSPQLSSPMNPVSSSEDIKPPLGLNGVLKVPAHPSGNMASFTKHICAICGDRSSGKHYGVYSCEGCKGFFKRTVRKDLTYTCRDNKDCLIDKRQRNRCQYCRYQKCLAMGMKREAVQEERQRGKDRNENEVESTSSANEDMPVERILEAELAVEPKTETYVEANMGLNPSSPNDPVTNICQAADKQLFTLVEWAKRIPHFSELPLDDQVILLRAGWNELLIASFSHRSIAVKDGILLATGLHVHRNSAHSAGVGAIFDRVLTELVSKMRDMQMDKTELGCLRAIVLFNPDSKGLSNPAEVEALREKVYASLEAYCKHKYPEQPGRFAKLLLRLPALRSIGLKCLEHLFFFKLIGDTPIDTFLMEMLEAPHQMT
Text: One convenient reporter assay for determining whether a fatty acid material is PPARα activating is based upon the firefly luciferase gene.
Fatty acids were screened to identify PPAR activating fatty acids using a reporter assay.
This assay relied on ligands binding to and activating the PPARα protein, which, in turn, activated genes under the control of PPAR response elements (PPRE). In the assay, the firefly luciferase gene was cloned behind a promoter containing 3 copies of the fatty acid binding protein PPRE.
The assay was performed by transient transfection of Cos-7 cells with a mixture of four DNA plasmids. These were:
1) PPAR reporter gene construct (Modified pNF-KB-luc reporter vector (Firefly luciferase reporter vector commercially available form Clontech (NF-kB response element, TK minimal promoter, luc^+, f1 origin, pUC origin, amp^r)). A tandem repeat of 3 PPAR response elements (PPREs) corresponding to the PPRE found in the fatty acid binding protein promoter was inserted upstream of the minimal TK promoter to replace the NF-κB response element);
2) 2) Over-expressing PPARα construct (Modified pcDNA3.1(−) vector (A mammalian expression vector commercially available from Invitrogen (CMV promoter, f1 origin, SV40 origin, ColE1 origin, neo^r, amp^r)). The coding region of a human PPARα cDNA was inserted downstream of the CMV promoter of pcDNA3.1 (−)). […] The coding region of a human RXRα cDNA has been inserted downstream of the RSV promoter. (Gift of V. K. K. Chatterjee, Addenbrooke's Hospital, Cambridge)) 4) Control luciferase construct (pRL-TK Renilla luciferase reporter vector commercially available from Promega (HSV-TK promoter, T7 promoter, Rluc^+, ori, amp^r)). For the transfection, DNA was made up as a mix of PPAR reporter gene: PPARα: RXRα: control in the ratio 40:4:3:3.
Cos-7 cells were grown in Dulbecco's modified Eagle's Medium, also herein referred to as DMEM with 10% foetal calf serum, herein also referred to as FCS at 37° C., 5% CO2 to 80% confluency. Cells were then plated out in 24 well plates at 50,000 cells per well and incubated overnight in DMEM with 10% FCS at 37° C., 5% CO2. Cells were then transfected using the LipofectAMINE reagent (GibcoBRL). For each well 0.4 μg of DNA mix (in 25 μl of DMEM) was incubated with 1 μl LipofectAMINE (in 25 μl of DMEM) for 45 minutes. The mixture was then made up to 250 μl per well and added to the cells, which had been washed with 1 ml of DMEM. Cells were then incubated for 5 hours at 37° C., 5% CO2 and 250 μl DMEM with 10% SBCS (charcoal stripped bovine calf serum) added. Cells were incubated for 18 hours at 37° C., 5% CO2 before being treated with the appropriate compound/extract. Test compounds were made up as 1000× stocks (in DMSO or ethanol as appropriate) and diluted into DMEM with 10% SBCS (500 μl per well) immediately before being added to cells. Each treatment was performed in triplicate. The transfection mix was removed from the cells and replaced with the treatment mix, and incubated for 24 hours at 37° C., 5% CO2. Cells were washed with 1 ml of PBS (without calcium or magnesium) and then lysed with 100 μl per well of 1× Passive Lysis Buffer (as supplied with Promega Dual Luciferase assay kit). Lysis was allowed to continue for 15 minutes and then the lysate was assayed for Firefly and Renilla luciferase activity using the Promega Dual Luciferase assay kit. For the assay, 20 μl of lysate was taken and assayed as described in the kit instructions using a MLX microtiter™ plate luminometer (Dynex).
Firefly luciferase activity (PPAR driven) was normalised against the Renilla luciferase value for that well and the mean calculated for the three wells treated with the same agent. Activity was then expressed as fold activation over the vehicle (DMSO or ethanol) control values for that particular plate.

[2] = tested on: Human foreskin keratinocytes; test: Keratinocyte cornified envelope assay; settings: for Cornified envelopes assay: 4 days, control (0 μM) 17996
Description: as §1
After Tris-triton extraction for TGase assay, the cells were extracted with 100 μl/well of 2% SDS, 20 mM DTT for 16 hours at 60° C. Once extracted the SDS suspension from each well was individually filtered through polyviylidenefluoride (PVDF) membrane (Immobilon-P™ Transfer Membrane, Millipore) which had been pre-blocked in Tris Buffered Saline (TBS) containing 0.5% (v/v) Tween 20, 0.5% using a Dot Blot TM Apparatus (Bio-Rad). Each sample was washed several times with TBS/Tween buffer before the membrane was removed from the apparatus, rinsed in distilled water and silver stained using silver stain kit (Bio-Rad). The stained dot blot membrane was scanned and analysed using Phoretix Array™ software.
Cultured keratinocytes were treated with pinoleic acid for 4 days. The cells were extracted with 2% SDS, 20 mM DTT and the cornified envelopes were quantified, after filtration using a PDVF membrane, by silver staining, as described above.

interleukin-6 (IL-6) = test: Skin organotypic culture analysis: AP-induced IL-6 release into the medium; settings: for IL-6: 24 h, Nil 51.7, AP 118.8
Description: (§2) The cultures were then incubated at 37° C., 5% CO2, and 95% relative humidity (standard cell culture conditions) for 24 h. The culture medium was assayed for the pro-inflammatory cytokine interleukin-6 (IL-6) and after washing to remove the AP formulation, the viability of the culture was determined using the Thiazoyl blue (MTT) assay (Mosmann, T. J. Immunol. Methods 65, p55 (1983). IL-6 was determined using an Immunoassay (Quantikine, R&D systems).
In this Example, skin organotypic cultures (Epiderm™, MatTek, USA) were treated topically with the above-identified AP formulation and the trans-10-cis-12 conjugated linoleic acid (TC CLA) was introduced into the medium. The cultures were then incubated at 37° C., 5% CO2, and 95% relative humidity (standard cell culture conditions) for 24 h. The culture medium was assayed for the pro-inflammatory cytokine interleukin-6 (IL-6) and after washing to remove the AP formulation, the viability of the culture was determined by the method described in Example 2.
as §2, with “hours.” for “h.”, “MTT assay.” for “Thiazoyl blue (MTT) assay (Mosmann, T. J. Immunol. Methods 65, p55 (1983).”, “ELISA assay (R&D” for “Immunoassay (Quantikine, R&D”

Row | Compound | Result at (lowest administration level at which super or MS activity was achieved) (human PPARα) | Result (superior activity class achieved) (human PPARα) | Pass at (lowest tested administration level at which the test material passed) (human PPARα) | other results
1 | hexadecatrienoic acid | 10 μm | super (superior activity [super] (50% higher—at least 2.25 times PPARα activation)) | 10 μm | keratinocyte DNA synthesis activity, statement ([1]; Example 14: 0.1-10 μM, 1 way ANOVA, p<0.05): significantly reduce; DNA ([1]; Table 15: 0.1 μM): 0.98 ng/well; DNA ([1]; Table 15: 1 μM): 1.27 ng/well; DNA ([1]; Table 15: 10 μM): 1.13 ng/well; cornified envelope formation, statement ([2]; Example 9: 1-10 μM, 1 way ANOVA, p<0.05): significantly increase; Cornified envelopes assay ([2]; Table 10: 0.1 μM): 17617 arb. Units; Cornified envelopes assay ([2]; Table 10: 1 μM): 36017 arb. Units; Cornified envelopes assay ([2]; Table 10: 10 μM): 40997 arb. Units
2 | CCCCC/C=C\C=C\CCCCCCCCC(=O)O [CLA (t10, c12), trans-10-cis-12 conjugated linoleic acid] | 100 μm | super (superior activity [super] (50% higher—at least 2.25 times PPARα activation)) | 50 μm | AP-induced IL-6 release (interleukin-6 (IL-6); 5 and 500 μM, Dunnet's test p<0.01): significantly decrease; IL-6 (interleukin-6 (IL-6); Table 5: 5 μM in medium + AP): 59.6 pg/mL; IL-6 (interleukin-6 (IL-6); Table 5: 500 μM in medium + AP): 57.1 pg/mL
3 | CCC=CCC=CC/C=C\CCCCCCCCCC(=O)O [cis-11,14,17 eicosatrienoic acid] | 100 μm | MS (more superior activity [MS] (100% higher—at least 3 times PPARα activation)) | 100 μm | –
4 | CCCCC/C=C\C/C=C\CC/C=C/CCCC(=O)O [Columbinic acid, columbinic acid] | 25 μm | super (superior activity [super] (50% higher—at least 2.25 times PPARα activation)) | 10 μm | –
5 | CCCCCC[C@@H](O)C/C=C\CCCCCCCC(=O)O [Ricinoleic acid, ricinoleic acid] | – | – | 10 μm | –
6 | CCCC\C=C/C=C/C=C\CCCCCCCC(=O)O [Punicic acid, punicic acid] | – | – | 25 μm | –
7 | Cc1cccc(Nc2cc(Cl)nc(SCC(=O)O)n2)c1C [WY14,643, reference compound] | 100 μm | super (superior activity [super] (50% higher—at least 2.25 times PPARα activation)) | 10 μm | –
